In patent US20210299111A1, “EIF4A INHIBITOR COMBINATIONS” (eFFECTOR Therapeutics Inc., priority 2020, published 2021):

How the values were obtained:
[1] = tested on: MDA-MB-361 ER^+ breast cancer cells; experiment: MDA-MB-361 xenograft tumor growth in athymic mice; type: in vivo; settings: eFT226 0.1 mg/kg intravenously Q4D, palbociclib 30 mg/kg orally QD, 18 days, tumor volume followed up to 45 days after last dose, FIG. 3
Procedure: The in vivo effect of a combination treatment using eFT226 and palbociclib on the tumor growth of MDA-MB-361 ER^+ breast cancer cells was tested. Xenograft experiments were performed by implanting MDA-MB-361 ER^+ breast cancer cells into athymic mice. Athymic mice implanted with MDA-MB-361 tumor cells were randomized and size-matched into vehicle and treatment groups when the mean tumor size reached ˜300 mm^3. The mice were then treated with (1) control vehicle; (2) 0.1 mg/kg of eFT226 administered intravenously every 4 days (Q4D) for a period of 18 days; (3) 30 mg/kg of palbociclib administered orally every day (QD) for a period of 18 days; or (4) 0.1 mg/kg of eFT226 administered intravenously Q4D and 30 mg/kg of palbociclib administered orally QD for a period of 18 days. The effect on the above treatments on tumor volume was monitored. Tumor volume was measured periodically for up to 45 days after the last dose of treatment was administered. […] Administration of either eFT226 or palbociclib alone led to a inhibition of tumor growth for about 22 days after the treatment was stopped. […] It is unknown what factors determine the equilibrium between the CDK4/6 inhibitor-sensitive monomeric CDK4 and the drug resistant p27-CDK4-cyclin D1 trimer.

cyclin D1 = experiment: Expression of cyclin D1 in MDA-MB-361 ER+ breast cancer cells treated with eFT226; type: cell-based; settings: MDA-MB-361 cells, 24 hours, FIG. 1
Procedure: (§1) The effect of eFT226 on key cell cycle regulators in MDA-MB-361 ER^+ breast cancer cells was tested. MDA-MB-361 ER^+ breast cancer cells were treated with varying concentrations of eFT226 (10 nM, 30 nM, and 100 nM) for 24 hours, and analyzed for the expression of the relevant key cell cycle regulators, cyclin D1, CDK4, and phosphorylated retinoblastoma (Rb) protein.

CDK4 = experiment: Expression of CDK4 in MDA-MB-361 ER+ breast cancer cells treated with eFT226; type: cell-based; settings: MDA-MB-361 cells; eFT226 10 nM, 30 nM, 100 nM; 24 hours; FIG. 1
Procedure: as §1

[2] = tested on: phosphorylated retinoblastoma (Rb) protein; experiment: Phosphorylated Rb protein in MDA-MB-361 ER+ breast cancer cells treated with eFT226; type: cell-based; settings: MDA-MB-361 cells; eFT226 10 nM, 30 nM, 100 nM; 24 hours; FIG. 1
Procedure: as §1

[3] = tested on: MDA-MB-361 ER^+ breast cancer cells; experiment: Cell viability of MDA-MB-361 cells, single agents and combination; type: cell-based; settings: Palbociclib 40 nM, eFT226 45 nM, 24 hours, then Palbociclib only for 6 days, versus untreated control, FIG. 2
Procedure: MDA-MB-361 ER^+ breast cancer cells were seeded at 10,000 cells/well in 24-well plates and treated with DMSO (“control”), Palbociclib (40 nM)(“Palbo”), eFT226 (45 nM) (“eFT226”), or the combination of the two drugs (“Combo”). After 24 hours of treatment, cells were rinsed and treatment with Palbociclib only was continued for 6 days, at which time cell viability was determined. Cells were counted on day 0 and day 6, when the experiment was ended.

[4] = tested on: SW620 (KRAS G12V) colorectal cancer cells; experiment: Cell viability (crystal violet) in KRAS mutant SW620 cells; type: cell-based; settings: Palbociclib 100 nM, eFT226 10 or 50 nM, 24 hours, then Palbociclib alone for 13 days, FIG. 4
Procedure: (§2) SW620 (KRAS G12V) colorectal cancer cells (FIG. 1), DLD1 (KRAS G13D) colorectal cancer cells (FIG. 2), and CORL23 (KRAS G12V) NSCLC cells (FIG. 3) were seeded at 500-1,000 cells/well in 6-well plates and treated with DMSO control (“DMSO”), Palbociclib (100 nM) (“Palbo”), eFT226 (10 or 50 nM), or the combination of the two drugs (“Palbo+eFT226). After 24 hours of treatment, cells were rinsed and treatment with Palbociclib alone was continued for an additional 13 days. At the end of treatment, cells were rinsed with phosphate buffered saline (PBS) and stained with crystal violet.

[5] = tested on: DLD1 (KRAS G13D) colorectal cancer cells; experiment: Cell viability (crystal violet) in KRAS mutant DLD1 cells; type: cell-based; settings: Palbociclib 100 nM, eFT226 10 or 50 nM, 24 hours, then Palbociclib alone for 13 days, FIG. 5
Procedure: as §2

[6] = tested on: CORL23 (KRAS G12V) NSCLC cells; experiment: Cell viability (crystal violet) in KRAS mutant CORL23 cells; type: cell-based; settings: Palbociclib 100 nM, eFT226 10 or 50 nM, 24 hours, then Palbociclib alone for 13 days, FIG. 6
Procedure: as §2

Row | SMILES | duration of inhibition of tumor growth after the last dose [1] | decrease of Cyclin D1 protein levels compared with Fulvestrant (cyclin D1) | cyclin D1 expression (cyclin D1; eFT226 10 nM, 30 nM, 100 nM) | CDK4 expression (CDK4) | phosphorylated Rb protein [2] | cell viability [3] | cell viability [4] | cell viability [5] | cell viability [6]
1 | CC(=O)c1c(C)c2cnc(Nc3ccc(N4CCNCC4)cn3)nc2n(C2CCCC2)c1=O [palbociclib, reference compound] | about 22 days |  |  |  |  |  |  |  | 
2 | COc1cc2c(c(OC)n1)[C@]1(O)[C@H](O)[C@H](CN(C)C)[C@@H](c3ccccc3)[C@]1(c1ccc(C#N)cc1)O2 [eFT226] | about 22 days | more effective than Fulvestrant (Fulv) in decreasing Cyclin D1 protein levels | suppression of cyclin D1 and CDK4 expression was observed in the cell line at all concentrations | suppression of cyclin D1 and CDK4 expression was observed in the cell line at all concentrations | concomitant decrease in phosphorylated Rb protein | reduced | reduced | reduced | reduced
